From patent US10610520B2, “Heterocyclic compound” (Takeda Pharmaceutical Company Limited, priority 2016, dated 2020)

Target: T1, His-hMAGL (recombinant polyhistidine tagged human MAGL protein) (Homo sapiens, UniProt Q99685)
T1 construct: made in house; host or cells: E. coli BL21(DE3)
T1 sequence (Q99685 1-303): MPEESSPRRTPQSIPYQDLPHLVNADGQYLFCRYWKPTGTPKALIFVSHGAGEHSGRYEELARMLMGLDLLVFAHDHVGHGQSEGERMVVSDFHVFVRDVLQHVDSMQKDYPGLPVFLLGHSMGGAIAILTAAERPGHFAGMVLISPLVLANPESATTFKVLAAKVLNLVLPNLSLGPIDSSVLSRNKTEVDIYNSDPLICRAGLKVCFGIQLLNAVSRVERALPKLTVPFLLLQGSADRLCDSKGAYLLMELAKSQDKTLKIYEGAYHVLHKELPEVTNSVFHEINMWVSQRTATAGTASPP
Test: Measurement of MAGL inhibitory activity (arachidonic acid production from 2-arachidonylglycerol, RapidFire-mass spectrometry)
Assay type: biochemical
Conditions: MAGL inhibitory rate, test compound 10 μM, 60 min preincubation, 2-arachidonylglycerol substrate
How it was run: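 Arachidonic acid formed was quantified by online solid-phase extraction and triple-quadrupole MS in negative SRM mode against a d8 internal standard. Reaction: recombinant His-hMAGL (7.5 ng/mL, pH 7.5 Tris buffer with Triton X-100 and BSA) plus 2-AG (5 μL of 150 μM stock) for 10 min at room temperature, quenched with 2% formic acid. Percent inhibition corrected for enzyme-free background.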

| SMILES | inhibition at 10 µM |
| --- | --- |
| O=C1COCC2(CN(C(=O)N3CCC(COc4ccc(F)cc4Cl)CC3)C2)N1 [Example 243, 2-((4-((2-chloro-4-fluorophenoxy)methyl)piperidin-1-yl)carbonyl)-8-oxa-2,5-diazaspiro[3.5]nonan-6-one] | 100% |
| O=C1CCC2(CN(C(=O)c3sc(-c4ccc(OC(F)(F)F)cc4)cc3Cl)C2)N1 [Example 249, 2-((3-chloro-5-(4-(trifluoromethoxy)phenyl)-2-thienyl)carbonyl)-2,5-diazaspiro[3.4]octan-6-one] | 93% |
| O=C1NC2(CO1)CN(C(=O)c1sc3c(F)c(OC(F)(F)F)cc(F)c3c1Cl)C2 [Example 315, 2-((3-chloro-4,7-difluoro-6-(trifluoromethoxy)-1-benzothiophen-2-yl)carbonyl)-7-oxa-2,5-diazaspiro[3.4]octan-6-one] | 100% |
| O=C1NC2(CO1)CN(C(=O)c1sc3cc(C4CC4)cc(F)c3c1C1CC1)C2 [Example 312, 2-((3,6-dichloropropyl-4-fluoro-1-benzothiophen-2-yl)carbonyl)-7-oxa-2,5-diazaspiro[3.4]octan-6-one] | 101% |
| O=C1CCC2(CN(C(=O)c3ccc(-c4ccc(Cl)c(C(F)(F)F)c4)cc3)C2)N1 [Example 52, 2-((4′-chloro-3′-(trifluoromethyl)biphenyl-4-yl)carbonyl)-2,5-diazaspiro[3.4]octan-6-one] | 99% |
| Cc1ccc(-c2ccc3c(Cl)c(C(=O)N4CC5(CCC(=O)N5)C4)sc3c2)c(F)c1 [Example 207, 2-((3-chloro-6-(2-fluoro-4-methylphenyl)-1-benzothiophen-2-yl)carbonyl)-2,5-diazaspiro[3.4]octan-6-one] | 99% |
| O=C1CCC2(CN(C(=O)N3CC(COc4ccc(C(F)(F)F)c(F)c4)C3)C2)N1 [Example 22, 2-((3-((3-fluoro-4-(trifluoromethyl)phenoxy)methyl)azetidin-1-yl)carbonyl)-2,5-diazaspiro[3.4]octan-6-one] | 100% |
| Cc1c(C(=O)N2CC3(COC(=O)N3)C2)sc2cc(-c3c(F)cccc3F)ccc12 [Example 351, 2-((6-(2,6-difluorophenyl)-3-methyl-1-benzothiophen-2-yl)carbonyl)-7-oxa-2,5-diazaspiro[3.4]octan-6-one] | 100% |
| O=C1NC2(CO1)CN(C(=O)c1sc3cc(F)cc(F)c3c1Cl)C2 [Example 362, 2-((3-chloro-4,6-difluoro-1-benzothiophen-2-yl)carbonyl)-7-oxa-2,5-diazaspiro[3.4]octan-6-one] | 100% |
| Cc1cc(-c2ccc3c(Cl)c(C(=O)N4CC5(CCC(=O)N5)C4)sc3c2)ccc1F [Example 210, 2-((3-chloro-6-(4-fluoro-3-methylphenyl)-1-benzothiophen-2-yl)carbonyl)-2,5-diazaspiro[3.4]octan-6-one] | 101% |
| O=C1CCC2(CN(C(=O)c3ccc(-c4cccc5c4CCO5)cc3)C2)N1 [Example 75, 2-(4-(2,3-dihydro-1-benzofuran-4-yl)benzoyl)-2,5-diazaspiro[3.4]octan-6-one] | 90% |
| O=C1NC2(CO1)CN(C(=O)c1sc3c(C(F)(F)F)cccc3c1Cl)C2 [Example 257, 2-((3-chloro-7-(trifluoromethyl)-1-benzothiophen-2-yl)carbonyl)-7-oxa-2,5-diazaspiro[3.4]octan-6-one] | 100% |
| O=C1CCC2(CN(C(=O)N3CCC(COc4ccc(C(F)(F)F)cc4Cl)CC3)C2)N1 [Example 3, 2-((4-((2-chloro-4-(trifluoromethyl)phenoxy)methyl)piperidin-1-yl)carbonyl)-2,5-diazaspiro[3.4]octan-6-one] | 102% |
| Cc1cc(F)cc(-c2ccc3c(Cl)c(C(=O)N4CC5(CCC(=O)N5)C4)sc3c2)c1 [Example 211, 2-((3-chloro-6-(3-fluoro-5-methylphenyl)-1-benzothiophen-2-yl)carbonyl)-2,5-diazaspiro[3.4]octan-6-one] | 99% |
| O=C1CCC2(CN(C(=O)c3cc4cc(OC(F)(F)F)ccc4s3)C2)N1 [Example 252, 2-((5-(trifluoromethoxy)-1-benzothiophen-2-yl)carbonyl)-2,5-diazaspiro[3.4]octan-6-one] | 98% |
| O=C1CCC2(CN(C(=O)c3ccc(-c4cc(C5CC5)ccc4F)cc3)C2)N1 [Example 53, 2-((5′-cyclopropyl-2′-fluorobiphenyl-4-yl)carbonyl)-2,5-diazaspiro[3.4]octan-6-one] | 99% |
| O=C1NC2(CCN(C(=O)c3sc4c(F)c(C(F)(F)F)ccc4c3C(F)F)C2)CO1 (stereo not shown) [Example 333, 7-((3-(difluoromethyl)-7-fluoro-6-(trifluoromethyl)-1-benzothiophen-2-yl)carbonyl)-3-oxa-1,7-diazaspiro[4.4]nonan-2-one] | 99% |

| SMILES | inhibition at 10 µM |
| --- | --- |
| O=C1CCC2(CN(C(=O)c3ccc(C(F)(F)c4ccccc4)cc3)C2)N1 [Example 28, 2-(4-(difluoro(phenyl)methyl)benzoyl)-2,5-diazaspiro[3.4]octan-6-one] | 97% |
| O=C1CCC2(CN(C(=O)c3ccc(-c4ccccc4)c(Cl)c3)C2)N1 [Example 119, 2-((2-chlorobiphenyl-4-yl)carbonyl)-2,5-diazaspiro[3.4]octan-6-one] | 90% |
| COc1c(F)cc(-c2ccc(C(=O)N3CC4(CCC(=O)N4)C3)cc2)cc1F [Example 71, 2-((3′,5′-difluoro-4′-methoxybiphenyl-4-yl)carbonyl)-2,5-diazaspiro[3.4]octan-6-one] | 94% |
| O=C1NC2(CCN(C(=O)c3sc4c(F)c(OC(F)(F)F)cc(F)c4c3Cl)C2)CO1 (stereo not shown) [Example 336, 7-((3-chloro-4,7-difluoro-6-(trifluoromethoxy)-1-benzothiophen-2-yl)carbonyl)-3-oxa-1,7-diazaspiro[4.4]nonan-2-one] | 100% |
| CC(Oc1ccc(C(F)(F)F)cc1F)C1CN(C(=O)N2CC3(CCC(=O)N3)C2)C1 (stereo not shown) [Example 10, 2-((3-(1-(2-fluoro-4-(trifluoromethyl)phenoxy)ethyl)azetidin-1-yl)carbonyl)-2,5-diazaspiro[3.4]octan-6-one] | 101% |
| O=C1CCC2(CN(C(=O)c3cccc(C(F)(F)c4ccccc4)c3)C2)N1 [Example 27, 2-(3-(difluoro(phenyl)methyl)benzoyl)-2,5-diazaspiro[3.4]octan-6-one] | 94% |
| O=C1NC2(CO1)CN(C(=O)c1sc3c(Cl)c(OC(F)F)cc(F)c3c1Cl)C2 [Example 303, 2-((3,7-dichloro-6-(difluoromethoxy)-4-fluoro-1-benzothiophen-2-yl)carbonyl)-7-oxa-2,5-diazaspiro[3.4]octan-6-one] | 100% |
| O=C1NC2(CO1)CN(C(=O)c1sc3ccccc3c1Cl)C2 [Example 288, 2-((3-chloro-1-benzothiophen-2-yl)carbonyl)-7-oxa-2,5-diazaspiro[3.4]octan-6-one] | 100% |
| O=C1CCC2(CN(C(=O)c3ccc(-c4ccc(C(F)(F)F)cc4)cc3)C2)N1 [Example 40, 2-((4′-(trifluoromethyl)biphenyl-4-yl)carbonyl)-2,5-diazaspiro[3.4]octan-6-one] | 98% |
| O=C1CCC2(CN(C(=O)c3sc4cc(-c5ccc(OC(F)(F)F)cc5)ccc4c3Cl)C2)N1 [Example 200, 2-((3-chloro-6-(4-(trifluoromethoxy)phenyl)-1-benzothiophen-2-yl)carbonyl)-2,5-diazaspiro[3.4]octan-6-one] | 94% |
| CC(Oc1ccc(F)cc1Cl)C1CCN(C(=O)N2CC3(CCC(=O)N3)C2)CC1 (stereo not shown) [Example 7, 2-((4-(1-(2-chloro-4-fluorophenoxy)ethyl)piperidin-1-yl)carbonyl)-2,5-diazaspiro[3.4]octan-6-one] | 103% |
| O=C1CCC2(CN(C(=O)c3ccc(-c4ccccc4OC(F)(F)F)cc3)C2)N1 [Example 62, 2-((2′-(trifluoromethoxy)biphenyl-4-yl)carbonyl)-2,5-diazaspiro[3.4]octan-6-one] | 95% |
| O=C1CCC2(CN(C(=O)c3sc4cc(C(F)(F)F)ccc4c3F)C2)N1 [Example 238, 2-((3-fluoro-6-(trifluoromethyl)-1-benzothiophen-2-yl)carbonyl)-2,5-diazaspiro[3.4]octan-6-one] | 97% |
| O=C1NC2(CO1)CN(C(=O)[C@H]1C[C@@H](OCc3ccc(C(F)(F)F)cc3Cl)C1)C2 [Example 352, 2-((cis-3-((2-chloro-4-(trifluoromethyl)benzyl)oxy)cyclobutyl)carbonyl)-7-oxa-2,5-diazaspiro[3.4]octan-6-one] | 100% |
| O=C1CCC2(CN(C(=O)c3sc4cc(-c5ccc(F)cc5Cl)ccc4c3Cl)C2)N1 [Example 224, 2-((3-chloro-6-(2-chloro-4-fluorophenyl)-1-benzothiophen-2-yl)carbonyl)-2,5-diazaspiro[3.4]octan-6-one] | 100% |
| O=C1NC2(CO1)CN(C(=O)c1sc3cc(Cl)cc(Cl)c3c1Cl)C2 [Example 308, 2-((3,4,6-trichloro-1-benzothiophen-2-yl)carbonyl)-7-oxa-2,5-diazaspiro[3.4]octan-6-one] | 101% |
| O=C1CCC2(CN(C(=O)c3ccc(-c4ccc5sc(C(F)(F)F)nc5c4)cc3)C2)N1 [Example 65, 2-(4-(2-(trifluoromethyl)-1,3-benzothiazol-5-yl)benzoyl)-2,5-diazaspiro[3.4]octan-6-one] | 85% |
